Measured values taken from patent publication US10188616B2, “Topical sphingosine-1-phosphate receptor agonist formulations and methods of using the same” (Teikoku Pharma USA, Inc., priority 2013, dated 2019).
Structures can show the parent of a compound that is named as a salt. Where two headings read alike, the source gives them in different places.

How the values were obtained:
[1] = Transdermal flux test of fingolimod HCl gel and solutions (Franz cell); format: in vitro ADME, human; settings: during the first 8 hours of the experiments
Experimental: Human cadaver skin was used and epidermal layers (stratum corneum and epidermis) were separated from the full-thickness skin as skin membrane and placed on top of the Franz cell. The donor compartment chamber and receptor sides of the Franz cell were clamped together. A receptor solution containing 0.9% sodium chloride was added to the cell. Solution samples or gel samples were inserted into the donor compartment chamber on top of the epidermis/stratum corneum. The cells were kept at a temperature of 33° C. during the entire experiment. Samples of the receptor solution were taken at regular intervals and the active agent concentration was measured by HPLC. The removed receptor solution was replaced with fresh solution to maintain the sink conditions. The flux was calculated from the slope of the cumulative amounts of the drug in the receiver compartment versus time.

[2] = Solubility of fingolimod in patch adhesive; format: physicochemical
[3] = orally administered fingolimod HCl; cited from earlier work
[4] = Transdermal flux test of topical patch formulations (Franz cell); format: in vitro ADME
Excerpt: Human cadaver skin was used and epidermal layers (stratum corneum and epidermis) were separated from the full-thickness skin as skin membrane. Samples were die-cut with an arch punch to a final diameter of about 2.0 cm^2. The release liner was removed and the drug delivery system was placed on top of the epidermis/stratum corneum with the drug adhesive layer facing the stratum corneum. Gentle pressure was applied to effect good contact between the adhesive layer and stratum corneum. The donor and receptor sides of the Franz cell were clamped together and the receptor solution containing 0.9% sodium chloride, 1% Tween 80 and 0.01% Gentamicin was added to the Franz cell. The cells were kept at 33° C. for the duration of the experiment. Samples of the receptor solution were taken at regular intervals and the active agent concentration was measured by HPLC. The removed receptor solution was replaced with fresh solution to maintain the sink conditions. The flux was calculated from the slope of cumulative amounts of the drug in the receiver compartment versus time plot.

CCCCCCCCc1ccc(CCC(N)(CO)CO)cc1 [fingolimod, 2-amino-2-[2-(4-octylphenyl)ethyl]propane-1,3-diol]
detection of fingolimod in the receptor solutions [1]: not detected
solubility of fingolimod in adhesive ([2]; Duro-Tak 87-9301 adhesive): less than 1%
solubility of fingolimod in the adhesive ([2]; PIB adhesive): less than 1%
solubility of fingolimod in the adhesive ([2]; acrylate polymer adhesive Duro-Tak 900A): less than 1%

CCCCCCCCc1ccc(CCC(N)(CO)CO)cc1 [fingolimod HCl, fingolimod hydrochloride]
peak to trough fluctuations, non-phosphorylated fingolimod [3]: ≤ 20%
peak to trough fluctuations, phosphorylated (active) form of fingolimod [3]: ≤ 45%

CCCCCCCCCCCCOC(=O)C(C)O (centres unmarked) [LL, Lauryl Lactate]
effect on the fingolimod flux [4]: enhancement effect

CCCCCCCC/C=C\CCCCCCCC(=O)OCC(O)CO (centres unmarked) [GMO, Glyceryl monooleate]
effect on the fingolimod flux ([4]; excipient in fingolimod base patches in Duro-Tak 9301, human cadaver skin, FIG. 3): enhancement effect
